A short description of assay [1]: Blood glucose levels study in mice. It is filed as in vivo, mouse. The method, then: Blood glucose levels were measured 24 or 48 hours after injection. No starvation applied. NFD=normal fat diet fed mice. […] Mice were treated with 25 or 50 mg/kg of compound 47 daily through i.p. injection. Blood glucose levels were measured several times before injection during the experiment.
PTP1B and TC-PTP are known to function in concert in regulating both insulin and leptin-mediated cellular processes. The inhibition of PTP1B and TC-PTP was reported to improve insulin sensitivity and glucose homeostasis in diet-induced obese mice. The effect of compound 47 on the glucose levels in mice was evaluated.

Assay [2] relates to MC38 syngeneic tumor. The assay can be described thus: MC38 syngeneic tumor study. It is filed as in vivo, mouse. The method, then:
Quantification was performed based on six representative images from six sections.
For MC38 syngeneic tumor study, 12 weeks C57BL6 female mice were injected subcutaneously with 10^6 MC38 cells for tumor growth. When tumors reached an average volume of 200 mm^3, mice were tumor size-matched and randomly assigned to different experimental groups for experiments. Mice were injected intraperitoneally with saline or 25 or 50 mg/kg compound 47 daily. Tumor sizes and animal weights were measured twice per week (FIGS. 5B-5C). Tumor volume (mm^3)=(length×width^2)/2. At the end of the experiments, mice were euthanized, and tumors were collected for analysis.

In assay [3] the test system is HEK293 cells. The assay is described as follows: Proteomic analysis for degradation selectivity in HEK293 cells. It is filed as cell-based. Particulars: 100 nM, 4 hours. The method, then:
The proteome-wide degradation selectivity of compound 47 was assessed by performing quantitative mass spectrometry-based proteomic experiments to determine the range of targets degraded by compound 47 in HEK293 cells.

The subject of assay [4] is CD8+ naïve T-cells. The assay can be described thus: Degradation, STAT phosphorylation and activation in CD8+ naive T-cells (flow cytometry). It is filed as cell-based, mouse. The method, then:
In (A) purified CD8^+ naïve T-cells from control (Ptpn2^fl/fl) and Lck-Cre; Ptpn2^fl/fl mice (n=3/genotype/condition) were incubated for 48 hours with IL-7 in the presence or absence of compound 47 as indicated, and TC-PTP and PTP1B protein levels were monitored by flow cytometry. (B) show vehicle-treated control, TCPTP-deficient Lck-Cre; Ptpn2^fl/fl and compound 47-treated control naïve CD8^+ T-cells were stimulated with plate-bound α-CD3/α-CD28 for 48 hours to promote T-cell activation. Basal STAT-1 (p(Y701) STAT-1) and STAT-5 (p(Y694) STAT-5) phosphorylation were assessed by flow cytometry. (C) cell size (FSC-A) and the T-cell activation markers CD25, CD69 and CD44 (MFI: mean fluorescence intensities) were measured by flow cytometry. (dot (●) represents Ptpn2^fl/fl+Vehicle, square (▪) represents Lck-Cre; Ptpn2^fl/fl+Vehicle, triangle (▴) represents Ptpn2^fl/fl+ compound 47).
Beyond attenuating JAK/STAT signaling in tumor cells, PTP1B and TC-PTP also have fundamental roles in T-cells, and the deletion of either TC-PTP or PTP1B in T-cells can markedly enhance anti-tumor immunity. TC-PTP attenuates T-cell receptor (TCR) signaling by dephosphorylating and inactivating the Src family kinase LCK. TC-PTP attenuates JAK/STAT1/5 signaling in response to cytokines such as IFNs and IL-2, which are required for the activation, clonal expansion, and differentiation of T-cells. The deletion of TC-PTP in T-cells enhances immunosurveillance and inhibits the growth of syngeneic tumors in mice and the anti-tumor efficacy of adoptively transferred T-cells. PTP1B also negatively regulates IL-2-induced JAK/STAT5 signaling in T-cells, and its deletion or inhibition in vivo can enhance the anti-tumor activity of T-cells. Accordingly, the impact of targeting PTP1B and TC-PTP with compound 47 on JAK/STAT signaling and the activation of T-cells after crosslinking the TCR was assessed. The effects of compound 47 were compared with the genetic deletion of TC-PTP (encoded by Ptpn2) in T-cells (Lck-Cre; Ptpn2^fl/fl). First, the impact of compound 47 on TC-PTP and PTP1B protein levels was assessed by flow cytometry using validated antibodies. […] The degradation of TC-PTP and PTP1B was accompanied by a more than 3-fold increase in STAT1 Y701 phosphorylation and a 2-fold increase in STAT5 Y694 phosphorylation detected after crosslinking the TCR with α-CD3/α-CD28 to activate T-cells (FIG. 9B). Importantly, the promotion of pSTAT1/Y701 and pSTAT5/Y694 by compound 47 treatment exceeded that achieved by the genetic deletion of TC-PTP, consistent with compound 47 targeting both TC-PTP and PTP1B to enhance signaling. […] CD25 (IL-2 receptor a), and CD69 (FIG. 9C). […] This was not necessarily a surprise since TC-PTP, but not PTP1B, attenuates TCR signaling in naive CD8^+ T-cells.
Background: In flow cytometry, cells or beads pass a laser one at a time.

The mark [5] stands for this setting: after crosslinking the TCR with α-CD3/α-CD28.

*1 amine or outer side, *2 acyl side, *3 side chain or, on linkers, in order; H or OH if unused. Where a SMILES comes first, the peptide text is derived from it. [ ]: non-standard residue; d: D form. The star is where a group is joined. NHCH2(1,3-C6H4)CH2CO = O=C(Cc1cccc(CN[*:1])c1)[*:2]; F2Pmp = N[C@@H](Cc1ccc(C(F)(F)P(=O)(O)O)cc1)C(=O)O; Phenylacetyl(4-OH,3-OMe) = COc1cc(CC(=O)*)ccc1O; Benzoyl(3-Br,4-Me) = Cc1ccc(C(=O)*)cc1Br; X1 = Cc1ncsc1-c1ccc([C@H](C)N*)cc1; Hyp = O=C(O)[C@@H]1C[C@@H](O)CN1; Tle = CC(C)(C)[C@H](N)C(=O)O

With `COc1cc(CC(=O)N[C@@H](Cc2ccccc2)C(=O)N[C@@H](Cc2ccc(C(F)(F)P(=O)(O)O)cc2)C(=O)N[C@@H](CCCCNC(=O)c2ccc(C)c(Br)c2)C(=O)NCc2cccc(CC(=O)N[C@H](C(=O)N3C[C@H](O)C[C@H]3C(=O)N[C@@H](C)c3ccc(-c4scnc4C)cc3)C(C)(C)C)c2)ccc1O` [Compound 47, ((4-((S)-3-(((S)-6-(3-bromo-4-methylbenzamido)-1-((3-(2-(((S)-1-((2S,4R)-4-hydroxy-2-(((S)-1-(4-(4-methylthiazol-5-yl)phenyl)ethyl)carbamoyl)pyrrolidin-1-yl)-3,3-dimethyl-1-oxobutan-2-yl)amino)-2-oxoethyl)benzyl)amino)-1-oxohexan-2-yl)amino)-2-((S)-2-(2-(4-hydroxy-3-methoxyphenyl)acetamido)-3-phenylpropanamido)-3-oxopropyl)phenyl)difluoromethyl)phosphonic Acid] ({Phenylacetyl(4-OH,3-OMe)}-F[F2Pmp]K(Benzoyl(3-Br,4-Me))[NHCH2(1,3-C6H4)CH2CO][Tle][Hyp]-X1), the blood glucose level result in assay [1] (MC38 tumor mouse model, 25 mg/kg daily i.p.) is on record as “did not lead to significant reduction in the level of blood glucose”; in assay [1] (MC38 tumor mouse model, 50 mg/kg daily i.p.), “slightly reduced blood glucose level”; in assay [1] (high-fat diet (HFD) mice, 15 mg/kg), “sufficient to reduce blood glucose level in high-fat diet (HFD) mice to that of normal fat diet fed (NFD) mice”; in assay [1] (high-fat diet (HFD) mice, 50 mg/kg) it was “further reduced glucose levels”. Also, the “CD8 T cell infiltration of tumor (CD8α IHC)” value in assay [2] (25 mg/kg) was “high level of CD8-T cell infiltration”. In addition, the MC38 tumor growth result in assay [2] (25 and 50 mg/kg i.p. daily, ten days) is “significantly inhibits MC38 tumor growth”. The “PTP1B and TC-PTP degradation in vivo (MC38 tumor)” value in assay [2] (25 or 50 mg/kg) is “induces PTP1B and TC-PTP degradation in vivo”. Further, the proteome-wide degradation selectivity result in assay [3] is “PTP1B was the only protein whose levels were significantly reduced”. In assay [4], the “TCR-induced activation of T-cells (cell size, CD44, CD25, CD69)” value is given as “enhanced the TCR-induced activation of T-cells”. Further, the “TC-PTP and PTP1B protein levels in T-cells” value in assay [4] (48 hr treatment) is reported as “effectively degraded”. In addition, the “increase in STAT1 Y701 phosphorylation” value in assay [4] (setting [5]) is on record as “more than 3 fold”. In assay [4] (setting [5]), the “increase in STAT5 Y694 phosphorylation” value is reported as 2 fold.

Source of the values: patent US20260240878A1, “PTP1B/TC-PTP DUAL INHIBITORS AND PROTEIN DEGRADERS” (Purdue Research Foundation, priority 2023, published 2026).
